# Earlier results in patent US20220211620A1, “Pain Relieving Spray” (Animal Ethics Pty Ltd, priority 2019, published 2022).
# Conditions: up to about; depending on the method of administration
smiles,measurement,value
CCCCN1CCCCC1C(=O)Nc1c(C)cccc1C (stereo not shown) [bupivacaine],duration of anaesthesia typically provided,6 to 12 h
